Literature values as cited in patent US12220423B2, “Compounds, derivatives, and analogs for cancer” (HYGIA PHARMACEUTICALS, LLC, priority 2018, dated 2025).

Tested on: KRAS
Settings: K-562 cells treated with 750 micromolars of IP6 for 60 min; p<0.05

In the case of `O=P(O)(O)O[C@H]1[C@H](OP(=O)(O)O)[C@@H](OP(=O)(O)O)[C@H](OP(=O)(O)O)[C@@H](OP(=O)(O)O)[C@H]1OP(=O)(O)O` [myo inositol hexaphosphate], the “down regulation of KRAS and other relevant genes” value is given as “down regulates KRAS and other relevant genes significantly”.
